ChEMBL document CHEMBL3797178, “Synthesis, antimycobacterial and antibacterial activity of 1-(6-amino-3,5-difluoropyridin-2-yl)fluoroquinolone derivatives containing an oxime functional moiety” (2016)
≈ marks a conversion by molar mass, not a printed value.

Tests used:
Assay type in all cases: functional
Pseudomonas aeruginosa [1] = assay: Antibacterial activity against Pseudomonas aeruginosa 14-16 after 18 to 24 hrs by CLSI M100-S11 method
Staphylococcus aureus [2] = assay: Antibacterial activity against methicillin-sensitive Staphylococcus aureus 14-4 after 18 to 24 hrs by CLSI M100-S11 method
Staphylococcus aureus [3] = assay: Antibacterial activity against methicillin-resistant Staphylococcus aureus 14-4 after 18 to 24 hrs by CLSI M100-S11 method
Escherichia coli [4] = assay: Antibacterial activity against extended-spectrum beta-lactamase-producing Escherichia coli 14-2 after 18 to 24 hrs by CLSI M100-S11 method
Enterococcus faecalis [5] = assay: Antibacterial activity against Enterococcus faecalis 14-3 after 18 to 24 hrs by CLSI M100-S11 method
[6] = test system: Mycobacterium tuberculosis; assay: Antimycobacterial activity against Mycobacterium tuberculosis H37Rv ATCC 27294 after 3 days by microplate Alamar Blue assay; conditions: H37Rv ATCC 27294, 72 h
Pseudomonas aeruginosa [7] = assay: Antibacterial activity against Pseudomonas aeruginosa 14-14 after 18 to 24 hrs by CLSI M100-S11 method
Pseudomonas aeruginosa [8] = assay: Antibacterial activity against Pseudomonas aeruginosa ATCC 27853 after 18 to 24 hrs by CLSI M100-S11 method
[9] = test system: Staphylococcus epidermidis; assay: Antibacterial activity against methicillin-resistant Staphylococcus epidermidis 14-37 after 18 to 24 hrs by CLSI M100-S11 method
[10] = test system: Staphylococcus epidermidis; assay: Antibacterial activity against methicillin-sensitive Staphylococcus epidermidis 14-4 after 18 to 24 hrs by CLSI M100-S11 method
Enterococcus faecium [11] = assay: Antibacterial activity against Enterococcus faecium 14-2 after 18 to 24 hrs by CLSI M100-S11 method
Staphylococcus aureus [12] = assay: Antibacterial activity against methicillin-sensitive Staphylococcus aureus 14-3 after 18 to 24 hrs by CLSI M100-S11 method
Pseudomonas aeruginosa [13] = assay: Antibacterial activity against Pseudomonas aeruginosa 14-19 after 18 to 24 hrs by CLSI M100-S11 method
Staphylococcus aureus [14] = assay: Antibacterial activity against Staphylococcus aureus CMCC 26003 after 18 to 24 hrs by CLSI M100-S11 method
Enterococcus faecalis [15] = assay: Antibacterial activity against Enterococcus faecalis 14-1 after 18 to 24 hrs by CLSI M100-S11 method
Klebsiella pneumoniae [16] = assay: Antibacterial activity against Klebsiella pneumoniae 14-3 after 18 to 24 hrs by CLSI M100-S11 method
Klebsiella pneumoniae [17] = assay: Antibacterial activity against Klebsiella pneumoniae 14-1 after 18 to 24 hrs by CLSI M100-S11 method
Klebsiella pneumoniae [18] = assay: Antibacterial activity against extended-spectrum beta-lactamase-producing Klebsiella pneumoniae 14-19 after 18 to 24 hrs by CLSI M100-S11 method
[19] = test system: Staphylococcus epidermidis; assay: Antibacterial activity against methicillin-sensitive Staphylococcus epidermidis 14-6 after 18 to 24 hrs by CLSI M100-S11 method
Enterococcus faecalis [20] = assay: Antibacterial activity against Enterococcus faecalis 14-2 after 18 to 24 hrs by CLSI M100-S11 method
Klebsiella pneumoniae [21] = assay: Antibacterial activity against Klebsiella pneumoniae 14-4 after 18 to 24 hrs by CLSI M100-S11 method
[22] = test system: Staphylococcus epidermidis; assay: Antibacterial activity against methicillin-resistant Staphylococcus epidermidis 14-22 after 18 to 24 hrs by CLSI M100-S11 method
Pseudomonas aeruginosa [23] = assay: Antibacterial activity against Pseudomonas aeruginosa 14-9 after 18 to 24 hrs by CLSI M100-S11 method
Escherichia coli [24] = assay: Antibacterial activity against extended-spectrum beta-lactamase-producing Escherichia coli 14-1 after 18 to 24 hrs by CLSI M100-S11 method
Escherichia coli [25] = assay: Antibacterial activity against Escherichia coli ATCC 25922 after 18 to 24 hrs by CLSI M100-S11 method
Klebsiella pneumoniae [26] = assay: Antibacterial activity against extended-spectrum beta-lactamase-producing Klebsiella pneumoniae 14-17 after 18 to 24 hrs by CLSI M100-S11 method
Staphylococcus aureus [27] = assay: Antibacterial activity against methicillin-resistant Staphylococcus aureus 14-5 after 18 to 24 hrs by CLSI M100-S11 method
Escherichia coli [28] = assay: Antibacterial activity against Escherichia coli 14-2 after 18 to 24 hrs by CLSI M100-S11 method
Streptococcus pneumoniae = assay: Antibacterial activity against Streptococcus pneumoniae ATCC 19615 after 18 to 24 hrs by CLSI M100-S11 method
Klebsiella pneumoniae [29] = assay: Antibacterial activity against Klebsiella pneumoniae 14-2 after 18 to 24 hrs by CLSI M100-S11 method
Escherichia coli [30] = assay: Antibacterial activity against Escherichia coli 14-1 after 18 to 24 hrs by CLSI M100-S11 method
Staphylococcus aureus [31] = assay: Antibacterial activity against methicillin-sensitive Staphylococcus aureus 14-2 after 18 to 24 hrs by CLSI M100-S11 method
Klebsiella pneumoniae [32] = assay: Antibacterial activity against extended-spectrum beta-lactamase-producing Klebsiella pneumoniae 14-18 after 18 to 24 hrs by CLSI M100-S11 method
Pseudomonas aeruginosa [33] = assay: Antibacterial activity against Pseudomonas aeruginosa 14-15 after 18 to 24 hrs by CLSI M100-S11 method
[34] = test system: Staphylococcus epidermidis; assay: Antibacterial activity against methicillin-sensitive Staphylococcus epidermidis 14-2 after 18 to 24 hrs by CLSI M100-S11 method
Enterococcus faecium [35] = assay: Antibacterial activity against Enterococcus faecium 14-1 after 18 to 24 hrs by CLSI M100-S11 method

CO/N=C1\CCN(c2nc3c(cc2F)c(=O)c(C(=O)O)cn3-c2nc(N)c(F)cc2F)CC1O (configuration not stated) gave an MIC (Pseudomonas aeruginosa [1]) of 128 µg/mL (≈ 268 µM), an MIC (Staphylococcus aureus [2]) of 4 µg/mL (≈ 8.36 µM) and an MIC (Staphylococcus aureus [3]) of over 128 µg/mL. The MIC (Escherichia coli [4]) was over 128 µg/mL, the MIC (Enterococcus faecalis [5]) was over 128 µg/mL and the MIC [6] was 30.7 µg/mL (≈ 64.3 µM). For the same compound, the MIC (Pseudomonas aeruginosa [7]) was 128 µg/mL (≈ 268 µM), the MIC (Pseudomonas aeruginosa [8]) was 128 µg/mL (≈ 268 µM) and the MIC [9] was over 128 µg/mL. For the same compound, the MIC [10] was over 128 µg/mL, the MIC (Enterococcus faecium [11]) was 64 µg/mL (≈ 134 µM) and the MIC (Staphylococcus aureus [12]) was 4 µg/mL (≈ 8.36 µM). The MIC (Pseudomonas aeruginosa [13]) was 128 µg/mL (≈ 268 µM), the MIC (Staphylococcus aureus [14]) was 2 µg/mL (≈ 4.18 µM) and the MIC (Enterococcus faecalis [15]) was over 128 µg/mL. For the same compound, the MIC (Klebsiella pneumoniae [16]) was over 128 µg/mL, the MIC (Klebsiella pneumoniae [17]) was over 128 µg/mL and the MIC (Klebsiella pneumoniae [18]) was over 128 µg/mL. The MIC [19] was over 128 µg/mL, the MIC (Enterococcus faecalis [20]) was over 128 µg/mL and the MIC (Klebsiella pneumoniae [21]) was over 128 µg/mL. It also gave an MIC [22] of over 128 µg/mL, an MIC (Pseudomonas aeruginosa [23]) of 128 µg/mL (≈ 268 µM) and an MIC (Escherichia coli [24]) of 64 µg/mL (≈ 134 µM). For the same compound, the MIC (Escherichia coli [25]) was 64 µg/mL (≈ 134 µM), the MIC (Klebsiella pneumoniae [26]) was over 128 µg/mL and the MIC (Staphylococcus aureus [27]) was 128 µg/mL (≈ 268 µM). For the same compound, the MIC (Escherichia coli [28]) was over 128 µg/mL, the MIC (Streptococcus pneumoniae) was 64 µg/mL (≈ 134 µM) and the MIC (Klebsiella pneumoniae [29]) was over 128 µg/mL. It also gave an MIC (Escherichia coli [30]) of over 128 µg/mL, an MIC (Staphylococcus aureus [31]) of 2 µg/mL (≈ 4.18 µM) and an MIC (Klebsiella pneumoniae [32]) of over 128 µg/mL. The MIC (Pseudomonas aeruginosa [33]) was 128 µg/mL (≈ 268 µM), the MIC [34] was over 128 µg/mL and the MIC (Enterococcus faecium [35]) was over 128 µg/mL.

In the case of Nc1nc(-n2cc(C(=O)O)c(=O)c3cc(F)c(N4CC/C(=N\OCc5ccccc5)C(N)C4)nc32)c(F)cc1F (configuration not stated), the MIC (Pseudomonas aeruginosa [1]) is reported as 128 µg/mL (≈ 231 µM), the MIC (Staphylococcus aureus [2]) is reported as 8 µg/mL (≈ 14.5 µM) and the MIC (Staphylococcus aureus [3]) is reported as over 128 µg/mL. For the same compound, the MIC (Escherichia coli [4]) was over 128 µg/mL, the MIC (Enterococcus faecalis [5]) was over 128 µg/mL and the MIC [6] was over 32 µg/mL. It also gave an MIC (Pseudomonas aeruginosa [7]) of 128 µg/mL (≈ 231 µM), an MIC (Pseudomonas aeruginosa [8]) of 128 µg/mL (≈ 231 µM) and an MIC [9] of over 128 µg/mL. The MIC [10] was over 128 µg/mL, the MIC (Enterococcus faecium [11]) was 64 µg/mL (≈ 116 µM) and the MIC (Staphylococcus aureus [12]) was 4 µg/mL (≈ 7.23 µM). The MIC (Pseudomonas aeruginosa [13]) was 128 µg/mL (≈ 231 µM), the MIC (Staphylococcus aureus [14]) was 8 µg/mL (≈ 14.5 µM) and the MIC (Enterococcus faecalis [15]) was 128 µg/mL (≈ 231 µM). For the same compound, the MIC (Klebsiella pneumoniae [16]) was over 128 µg/mL, the MIC (Klebsiella pneumoniae [17]) was over 128 µg/mL and the MIC (Klebsiella pneumoniae [18]) was over 128 µg/mL. For the same compound, the MIC [19] was over 128 µg/mL, the MIC (Enterococcus faecalis [20]) was 128 µg/mL (≈ 231 µM) and the MIC (Klebsiella pneumoniae [21]) was over 128 µg/mL. The MIC [22] was over 128 µg/mL, the MIC (Pseudomonas aeruginosa [23]) was 128 µg/mL (≈ 231 µM) and the MIC (Escherichia coli [24]) was 128 µg/mL (≈ 231 µM). It also gave an MIC (Escherichia coli [25]) of 64 µg/mL (≈ 116 µM), an MIC (Klebsiella pneumoniae [26]) of over 128 µg/mL and an MIC (Staphylococcus aureus [27]) of over 128 µg/mL. The MIC (Escherichia coli [28]) was over 128 µg/mL, the MIC (Streptococcus pneumoniae) was 64 µg/mL (≈ 116 µM) and the MIC (Klebsiella pneumoniae [29]) was over 128 µg/mL. It also gave an MIC (Escherichia coli [30]) of over 128 µg/mL, an MIC (Staphylococcus aureus [31]) of 8 µg/mL (≈ 14.5 µM) and an MIC (Klebsiella pneumoniae [32]) of over 128 µg/mL. It also gave an MIC (Pseudomonas aeruginosa [33]) of 128 µg/mL (≈ 231 µM), an MIC [34] of over 128 µg/mL and an MIC (Enterococcus faecium [35]) of over 128 µg/mL.
